In brackets after ≈: the same amount, converted by molar mass.
Legend:
HO-1 [1] = assay: HO-1 protein expression by Western blot, A549; format: cell-based, human; details: A549, 10 μM, 48 h
Description: (§1) Proteins were extracted from total cell lysate, as previously described.[61] Briefly, cell lines were added to a buffer containing 20 mM Tris (pH 7.4), 2 mM EDTA, 0.5 mM EGTA, 50 mM mercaptoethanol, and […] sucrose supplemented with phosphatase and protease inhibitor cocktails (Roche Diagnostics, Monza, Italy). Subsequently, protein samples were sonicated twice for 20′ by using an ultrasonic probe, followed by centrifugation at 10 000g for 10 min at 4 °C. Sample proteins (30 μg) were diluted in 4X NuPage LDS sample buffer (Invitrogen, NP0007), heated at 80 °C for 5 min, and then separated on a Biorad Criterion XT 4–15% Bis–Tris gel (BIO-RAD) by electrophoresis and then transferred to a PVDF membrane (BIO-RAD). Blots were blocked using the Odyssey Blocking Buffer (LI-COR Biosciences) and probed with appropriate antibodies: HO-1 antibody (GeneTex GTX101147), goat polyclonal anti-VEGF (cat. no. sc-1836, Santa Cruz Biotechnology), and rabbit polyclonal anti-β-tubulin (cat n.sc-9104, Santa Cruz Biotechnology) and β-actin antibody (GeneTex GTX109639).
(§2) The secondary antibodies goat antirabbit (Odyssey, #926-32211; Odyssey #926-68021) and donkey antigoat IRDye 800CW (cat #926-32214; Li-Cor Biosciences) were used at 1:7000. Blots were scanned, and densitometric analysis was performed with the Odyssey Infrared Imaging System. Values were normalized to β-actin and to β-tubulin.

human CYP3A4 = biological target: T1, human CYP3A4 (Homo sapiens, UniProt P08684); assay: CYP3A4 inhibition (Eurofins); format: in vitro ADME
T1 construct: Eurofins Scientific (contract assay) 391
T1 sequence (P08684 whole entry): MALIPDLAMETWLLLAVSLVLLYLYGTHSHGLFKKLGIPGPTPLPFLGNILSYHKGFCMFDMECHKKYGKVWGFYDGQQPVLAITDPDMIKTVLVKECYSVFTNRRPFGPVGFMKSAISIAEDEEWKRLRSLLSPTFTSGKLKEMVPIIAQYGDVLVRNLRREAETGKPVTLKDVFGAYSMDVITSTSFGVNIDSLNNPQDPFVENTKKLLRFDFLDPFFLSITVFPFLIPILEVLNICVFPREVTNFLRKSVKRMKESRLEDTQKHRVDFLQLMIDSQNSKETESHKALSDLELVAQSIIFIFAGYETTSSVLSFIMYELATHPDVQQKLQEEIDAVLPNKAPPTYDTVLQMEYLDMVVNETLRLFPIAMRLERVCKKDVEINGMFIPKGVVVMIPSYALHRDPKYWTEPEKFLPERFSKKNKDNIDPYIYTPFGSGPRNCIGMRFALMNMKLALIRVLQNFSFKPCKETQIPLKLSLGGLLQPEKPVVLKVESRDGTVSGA
From the text: (§3) In vitro ADMET testing has been performed at Eurofins Scientific.

VEGF = VEGF intracellular expression by Western blot, U87MG; format: cell-based, human; details: 10 μM, 48 h
Description: as §1, §2

[2] = Bidirectional permeability (Caco-2); format: in vitro ADME; details: human
human CYP2D6 = biological target: T2, human CYP2D6 (Homo sapiens, UniProt P10635); assay: CYP2D6 inhibition (Eurofins); format: in vitro ADME
T2 construct: Eurofins Scientific (contract assay) 1338
T2 sequence (P10635 whole entry): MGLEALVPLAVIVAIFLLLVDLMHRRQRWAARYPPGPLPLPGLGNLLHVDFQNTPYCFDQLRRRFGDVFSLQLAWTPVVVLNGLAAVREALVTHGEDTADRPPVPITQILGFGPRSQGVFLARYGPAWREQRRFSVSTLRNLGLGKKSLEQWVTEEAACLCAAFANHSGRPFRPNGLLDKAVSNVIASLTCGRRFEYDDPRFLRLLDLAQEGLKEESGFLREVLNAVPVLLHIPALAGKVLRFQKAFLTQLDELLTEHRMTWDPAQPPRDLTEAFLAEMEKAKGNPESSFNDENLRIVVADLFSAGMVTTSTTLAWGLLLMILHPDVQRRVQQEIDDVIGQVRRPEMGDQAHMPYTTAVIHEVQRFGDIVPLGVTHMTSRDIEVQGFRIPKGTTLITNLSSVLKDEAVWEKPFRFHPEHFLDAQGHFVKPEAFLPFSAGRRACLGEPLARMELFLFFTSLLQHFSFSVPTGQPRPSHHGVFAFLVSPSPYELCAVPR
From the text: as §3

hERG potassium channel = biological target: T3, hERG potassium channel (Homo sapiens, UniProt Q12809); assay: hERG human potassium ion channel binding (Eurofins)
T3 construct: Eurofins Scientific (contract assay) 4094
T3 sequence (Q12809 whole entry): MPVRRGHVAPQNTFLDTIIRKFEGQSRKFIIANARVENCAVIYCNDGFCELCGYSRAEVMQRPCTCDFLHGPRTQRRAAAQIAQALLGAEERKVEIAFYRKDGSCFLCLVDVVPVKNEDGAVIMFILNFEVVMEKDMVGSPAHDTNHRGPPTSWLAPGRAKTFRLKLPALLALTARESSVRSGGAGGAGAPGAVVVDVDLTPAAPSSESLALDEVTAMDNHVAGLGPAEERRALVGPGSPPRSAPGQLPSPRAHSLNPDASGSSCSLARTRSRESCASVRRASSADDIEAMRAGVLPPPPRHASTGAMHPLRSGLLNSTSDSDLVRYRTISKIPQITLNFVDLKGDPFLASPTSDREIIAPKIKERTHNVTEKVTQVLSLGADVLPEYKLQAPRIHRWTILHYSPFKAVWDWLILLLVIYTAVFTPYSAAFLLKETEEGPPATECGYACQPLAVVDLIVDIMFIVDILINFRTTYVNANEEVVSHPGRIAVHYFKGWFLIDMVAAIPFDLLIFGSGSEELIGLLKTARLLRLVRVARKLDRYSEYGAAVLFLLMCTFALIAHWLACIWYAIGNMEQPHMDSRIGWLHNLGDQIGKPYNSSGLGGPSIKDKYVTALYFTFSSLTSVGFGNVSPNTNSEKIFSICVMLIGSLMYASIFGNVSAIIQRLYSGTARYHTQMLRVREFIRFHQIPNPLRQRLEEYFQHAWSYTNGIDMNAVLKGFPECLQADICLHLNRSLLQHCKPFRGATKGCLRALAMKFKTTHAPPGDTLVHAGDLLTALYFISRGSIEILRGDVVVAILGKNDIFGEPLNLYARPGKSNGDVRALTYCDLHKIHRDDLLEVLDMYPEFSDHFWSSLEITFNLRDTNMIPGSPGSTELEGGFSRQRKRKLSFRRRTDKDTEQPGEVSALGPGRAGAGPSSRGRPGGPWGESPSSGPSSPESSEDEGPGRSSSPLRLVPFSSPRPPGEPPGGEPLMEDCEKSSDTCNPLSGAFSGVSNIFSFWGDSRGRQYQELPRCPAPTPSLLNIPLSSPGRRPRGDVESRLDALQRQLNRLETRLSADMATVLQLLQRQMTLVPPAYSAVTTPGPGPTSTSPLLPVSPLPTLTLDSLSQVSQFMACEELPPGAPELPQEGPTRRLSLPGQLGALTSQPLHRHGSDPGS
From the text: as §3

[3] = Aqueous solubility in simulated gastric fluid (Eurofins); format: physicochemical
Description: In vitro ADMET testing has been performed at Eurofins Scientific. Aqueous solubility in simulated gastric fluid (catalogue product number 2061), intrinsic clearance in liver microsome-human (catalogue product number 607), CYP2D6 and CYP3A4 inhibition (catalogue product numbers 1338 and 391, respectively), and hERG human potassium ion channel binding (catalogue product number 4094) were conducted at Eurofins following their experimental protocols (https://www.eurofins.com/).

VEGF-A = VEGF-A release in conditioned media, ELISA, U87MG; format: cell-based, human; details: 10 μM, 48 h
Description: VEGF-A release in conditioned media was measured using the ELISA sandwich enzymatic method with specific anti-VEGF-A (cat. No. ELH-VEGF) antibodies coated on a 96-well plate, according to the manufacturer’s guidelines. Briefly, confluent U87MG cells grown in media supplemented with 1% FBS were treated for 48 h with 10 μM of 7l. Standards and supernatants from samples were pipetted into the wells containing the immobilized VEGF antibody. The wells were then washed before adding a biotinylated antihuman VEGF antibody. Following incubation, the unbound biotinylated antibody was washed off, and HRP-conjugated streptavidin was pipetted in each well. After an additional wash step, a TMB substrate solution was added to each well, resulting in blue coloration proportional to the amount of bound VEGF. Finally, the stop solution was added, and the colorimetric intensity of the blue substrate now turned yellow was measured at 450 nm.

HO-1 [4] = assay: HO-1 protein expression by Western blot, A172; format: cell-based, human; details: A172, 10 μM, 48 h
Description: as §1, §2

HO-1 [5] = assay: HO-1 protein expression by Western blot, DU145; format: cell-based; details: DU145, 10 μM, 48 h
Description: as §1, §2

[6] = Caco-2, pH 6.5/7.4, tested concentration 10 μM

Structure (SMILES): CN(C(=O)Cn1ccnc1)C(c1ccccc1)c1ccc(OCc2ccccc2)cc1 (stereo not drawn) [7o, N-((4-(Benzyloxy)phenyl)(phenyl)methyl)-2-(1H-imidazol-1-yl)-N-methylacetamide]
- HO-1 protein expression (in words) (HO-1 [1]): upregulated its expression

Structure (SMILES): CN(C(=O)Cn1ccnc1)C(c1ccccc1)c1ccc(Cl)cc1 (stereo not drawn) [7l, N-((4-Chlorophenyl)(phenyl)methyl)-2-(1H-imidazol-1-yl)-N-methylacetamide]
- IC50 (human CYP3A4): 0.18 µM
- VEGF intracellular expression (in words) (VEGF): significant reduction
- efflux ratio at 10 μM ([2]; Caco-2, read-out: efflux ratio (Papp BA/Papp AB)): 0.44
- Papp A→B at 10 µM [2, 6]: 44.1 ×10⁻⁶ cm/s
- Papp B→A at 10 µM [2, 6]: 19.4 ×10⁻⁶ cm/s
- IC50 (human CYP2D6): 2.5 µM
- inhibition at 1 µM (hERG potassium channel): 5.7%
- solubility [3]: 196 µM (≈ 66.5 µg/mL)
- VEGF release in the culture medium (in words) (VEGF-A): significant reduction

Structure (SMILES): CN(C(=O)Cn1ccnc1)C(c1ccccc1)c1ccc(I)cc1 (stereo not drawn) [7n, 2-(1H-Imidazol-1-yl)-N-((4-iodophenyl)(phenyl)methyl)-N-methylacetamide]
- HO-1 protein expression (in words) (HO-1 [4]): enhanced its levels
- HO-1 protein expression (in words) (HO-1 [5]): reduced HO-1 protein expression
